Assay results reported in ChEMBL document CHEMBL4673225, “Highly Selective PTK2 Proteolysis Targeting Chimeras to Probe Focal Adhesion Kinase Scaffolding Functions” (J Med Chem, 2019).
Each block holds one molecule with its values, some of them ahead of it. Activity calls are given as the source filed them. The calls are words filed in the database; no cut-off is given here.

Key:
[1] = molecular target: T1, von Hippel-Lindau disease tumor suppressor/Focal adhesion kinase 1 (Homo sapiens, UniProt Q05397+P40337); assay: Protac activity at VHL/PTK2 in human HuCCT-1 cells assessed as induction of PTK2 degradation incubated for 18 hrs by protein capillary electrophoresis method relative to control; type: cell-based
Target sequence in this assay (P40337 whole entry partner): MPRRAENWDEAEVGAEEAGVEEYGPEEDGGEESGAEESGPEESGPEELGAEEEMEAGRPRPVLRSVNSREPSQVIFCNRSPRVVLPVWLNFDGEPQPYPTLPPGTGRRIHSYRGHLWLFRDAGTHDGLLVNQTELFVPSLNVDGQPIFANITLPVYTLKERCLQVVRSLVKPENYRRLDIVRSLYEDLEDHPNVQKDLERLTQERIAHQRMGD
Target sequence in this assay (Q05397 2-1052 limits assumed): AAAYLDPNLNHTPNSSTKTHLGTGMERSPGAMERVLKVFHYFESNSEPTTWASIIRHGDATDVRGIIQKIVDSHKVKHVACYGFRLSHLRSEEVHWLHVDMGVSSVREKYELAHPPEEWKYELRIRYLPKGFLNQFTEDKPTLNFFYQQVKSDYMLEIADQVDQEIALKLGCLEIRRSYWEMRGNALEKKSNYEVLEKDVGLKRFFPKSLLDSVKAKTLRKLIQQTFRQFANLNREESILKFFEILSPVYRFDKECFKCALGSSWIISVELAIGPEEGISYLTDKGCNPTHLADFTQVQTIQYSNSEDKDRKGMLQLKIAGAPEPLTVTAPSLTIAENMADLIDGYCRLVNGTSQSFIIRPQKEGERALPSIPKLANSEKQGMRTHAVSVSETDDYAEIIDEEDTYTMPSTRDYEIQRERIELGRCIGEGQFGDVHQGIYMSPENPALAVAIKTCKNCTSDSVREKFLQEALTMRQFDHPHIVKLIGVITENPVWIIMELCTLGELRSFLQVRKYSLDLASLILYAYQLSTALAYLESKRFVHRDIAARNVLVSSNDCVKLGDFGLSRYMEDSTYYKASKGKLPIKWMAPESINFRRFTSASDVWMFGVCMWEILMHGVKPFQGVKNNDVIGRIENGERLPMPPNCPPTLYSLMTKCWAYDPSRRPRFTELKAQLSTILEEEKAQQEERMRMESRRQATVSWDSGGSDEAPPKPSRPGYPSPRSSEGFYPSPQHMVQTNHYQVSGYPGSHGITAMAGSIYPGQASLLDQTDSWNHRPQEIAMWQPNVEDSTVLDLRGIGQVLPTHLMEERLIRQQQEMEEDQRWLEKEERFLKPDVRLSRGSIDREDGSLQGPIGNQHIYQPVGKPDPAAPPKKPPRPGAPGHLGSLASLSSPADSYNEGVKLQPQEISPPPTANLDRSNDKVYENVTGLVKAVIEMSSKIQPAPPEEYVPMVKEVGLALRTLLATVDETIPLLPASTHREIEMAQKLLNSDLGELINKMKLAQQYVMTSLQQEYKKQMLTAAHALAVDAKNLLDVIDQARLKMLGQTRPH

[2] = Stability in EMEM cell assay buffer containing 10% FCS; type: physicochemical; conditions: cattle
[3] = tested on: SNU-423; assay: cells; conditions: Homo sapiens, SNU-423, 144 h, read-out: pIC50 (converted)
Description: Antiproliferative activity against human SNU-423 cells incubated for 6 days by CellTiter-Glo luminescent cell viability assay

[4] = molecular target: T1, von Hippel-Lindau disease tumor suppressor/Focal adhesion kinase 1; assay: Protac activity at VHL/PTK2 in human HLE cells assessed as induction of PTK2 degradation incubated for 18 hrs by protein capillary electrophoresis method; type: cell-based
Target sequence in this assay (Q05397 whole entry): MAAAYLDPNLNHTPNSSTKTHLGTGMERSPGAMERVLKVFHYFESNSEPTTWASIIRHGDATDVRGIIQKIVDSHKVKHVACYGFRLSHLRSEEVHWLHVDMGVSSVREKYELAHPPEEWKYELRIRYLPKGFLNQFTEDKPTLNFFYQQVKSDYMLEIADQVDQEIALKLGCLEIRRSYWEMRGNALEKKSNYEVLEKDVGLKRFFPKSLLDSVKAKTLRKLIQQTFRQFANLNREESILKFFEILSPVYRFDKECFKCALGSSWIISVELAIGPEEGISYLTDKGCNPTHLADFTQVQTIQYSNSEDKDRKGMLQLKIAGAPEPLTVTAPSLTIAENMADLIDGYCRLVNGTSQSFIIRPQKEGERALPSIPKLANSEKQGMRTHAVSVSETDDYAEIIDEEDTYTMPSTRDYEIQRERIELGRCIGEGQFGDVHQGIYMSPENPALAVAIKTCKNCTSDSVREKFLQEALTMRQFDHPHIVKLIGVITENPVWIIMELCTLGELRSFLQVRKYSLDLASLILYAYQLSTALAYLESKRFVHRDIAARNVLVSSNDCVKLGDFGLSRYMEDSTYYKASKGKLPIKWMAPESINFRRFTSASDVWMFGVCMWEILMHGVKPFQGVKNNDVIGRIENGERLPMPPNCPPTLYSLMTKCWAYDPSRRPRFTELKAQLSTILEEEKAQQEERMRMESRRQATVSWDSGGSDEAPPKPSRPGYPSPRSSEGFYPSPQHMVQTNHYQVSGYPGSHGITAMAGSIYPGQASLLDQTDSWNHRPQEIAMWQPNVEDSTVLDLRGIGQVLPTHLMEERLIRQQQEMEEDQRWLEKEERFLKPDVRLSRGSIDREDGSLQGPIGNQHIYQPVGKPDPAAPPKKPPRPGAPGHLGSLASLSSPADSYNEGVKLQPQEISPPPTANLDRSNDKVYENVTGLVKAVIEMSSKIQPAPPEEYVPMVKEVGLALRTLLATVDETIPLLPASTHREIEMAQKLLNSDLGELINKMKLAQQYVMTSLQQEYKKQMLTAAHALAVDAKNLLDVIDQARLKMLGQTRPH
Target sequence in this assay (P40337 whole entry): as the sequence (P40337 whole entry partner) above

[5] = tested on: SNU-398; assay: Antiproliferative activity against human SNU-398 cells incubated for 7 to 14 days by methylene blue dye based anchorage independent growth assay; type: functional, cell-based; conditions: time 7-14 day
[6] = molecular target: T1, von Hippel-Lindau disease tumor suppressor/Focal adhesion kinase 1; assay: Protac activity at VHL/PTK2 in human HuH-1 cells assessed as induction of PTK2 degradation incubated for 18 hrs by protein capillary electrophoresis method; type: cell-based
Target sequence in this assay (Q05397 whole entry): as the sequence (Q05397 whole entry) above
Target sequence in this assay (P40337 whole entry): as the sequence (P40337 whole entry partner) above

[7] = molecular target: T1, von Hippel-Lindau disease tumor suppressor/Focal adhesion kinase 1; assay: Protac activity at VHL/PTK2 in human SNU-387 cells assessed as induction of PTK2 degradation incubated for 18 hrs by protein capillary electrophoresis method; type: cell-based
Target sequence in this assay (Q05397 whole entry): as the sequence (Q05397 whole entry) above
Target sequence in this assay (P40337 whole entry): as the sequence (P40337 whole entry partner) above

[8] = tested on: HuCCT-1; assay: Antiproliferative activity against human HuCCT-1 cells incubated for 7 to 14 days by methylene blue dye based anchorage independent growth assay; type: functional, cell-based; conditions: time 7-14 day
[9] = tested on: HLF1; assay: Antiproliferative activity against human HLF1 cells incubated for 7 to 14 days by methylene blue dye based anchorage independent growth assay; type: functional, cell-based; conditions: time 7-14 day
[10] = tested on: HepG2; assay: cells; conditions: Homo sapiens, HepG2, 144 h, read-out: pIC50 (converted)
Description: Antiproliferative activity against human HepG2 cells incubated for 6 days by CellTiter-Glo luminescent cell viability assay

[11] = tested on: HuH-1; assay: Antiproliferative activity against human HuH-1 cells incubated for 7 to 14 days by methylene blue dye based anchorage independent growth assay; type: functional, cell-based; conditions: time 7-14 day
[12] = tested on: HuCCT-1; assay: cells; conditions: Homo sapiens, HuCCT-1, 144 h, read-out: pIC50 (converted)
Description: Antiproliferative activity against human HuCCT-1 cells incubated for 6 days by CellTiter-Glo luminescent cell viability assay

[13] = tested on: A549; assay: Antiproliferative activity against C32 in human A549 cells at 3 uM incubated for 21 day; type: functional, cell-based
[14] = tested on: SNU-423; assay: Antiproliferative activity against human SNU-423 cells incubated for 7 to 14 days by methylene blue dye based anchorage independent growth assay; type: functional, cell-based; conditions: time 7-14 day
[15] = Fraction unbound in 10% FCS; type: ADME, cell-free, Bos taurus; conditions: cattle, 10% fetal calf serum (FCS)
[16] = Permeability in human Caco-2 cells; type: ADME, cell-based
[17] = molecular target: T1, von Hippel-Lindau disease tumor suppressor/Focal adhesion kinase 1; assay: Protac activity at VHL/PTK2 in human HLE cells assessed as induction of PTK2 degradation incubated for 18 hrs by protein capillary electrophoresis method relative to control; type: cell-based
Target sequence in this assay (P40337 whole entry partner): as above
Target sequence in this assay (Q05397 2-1052 limits assumed): as the sequence (Q05397 2-1052 limits assumed) above

[18] = molecular target: T1, von Hippel-Lindau disease tumor suppressor/Focal adhesion kinase 1; assay: Protac activity at VHL/PTK2 in human SK-HEP1 cells assessed as induction of PTK2 degradation incubated for 18 hrs by protein capillary electrophoresis method; type: cell-based
Target sequence in this assay (Q05397 whole entry): as the sequence (Q05397 whole entry) above
Target sequence in this assay (P40337 whole entry): as the sequence (P40337 whole entry partner) above

[19] = tested on: HepG2; assay: Antiproliferative activity against human HepG2 cells incubated for 7 to 14 days by methylene blue dye based anchorage independent growth assay; type: functional, cell-based; conditions: time 7-14 day
[20] = tested on: Huh-7; assay: Antiproliferative activity against human Huh-7 cells incubated for 7 to 14 days by methylene blue dye based anchorage independent growth assay; type: functional, cell-based; conditions: time 7-14 day
[21] = tested on: SK-HEP1; assay: cells; conditions: Homo sapiens, SK-HEP1, 144 h, read-out: pIC50 (converted)
Description: Antiproliferative activity against human SK-HEP1 cells incubated for 6 days by CellTiter-Glo luminescent cell viability assay

[22] = tested on: SNU-387; assay: Antiproliferative activity against human SNU-387 cells incubated for 7 to 14 days by methylene blue dye based anchorage independent growth assay; type: functional, cell-based; conditions: time 7-14 day
[23] = molecular target: Focal adhesion kinase 1 (Homo sapiens, UniProt Q05397); assay: Inhibition of human PTK2 (411-689 residues) expressed in Hi-5 cells
[24] = tested on: A549; assay: Induction of general kinase degradation in human A549 cells at 3 uM incubated for 18 hrs by mass spectrometry based total proteome analysis; type: functional, cell-based
[25] = cells; conditions: Homo sapiens, HuH-1, 144 h, read-out: pIC50 (converted)
Description: Antiproliferative activity against human HuH-1 cells incubated for 6 days by CellTiter-Glo luminescent cell viability assay

[26] = molecular target: Retinal rod rhodopsin-sensitive cGMP 3',5'-cyclic phosphodiesterase subunit delta (Homo sapiens) (UniProt O43924); assay: Induction of PDE6D degradation in human A549 cells at 3 uM incubated for 18 hrs by mass spectrometry based total proteome analysis; type: cell-based
[27] = tested on: SNU-398; assay: cells; conditions: Homo sapiens, SNU-398, 144 h, read-out: pIC50 (converted)
Description: Antiproliferative activity against human SNU-398 cells incubated for 6 days by CellTiter-Glo luminescent cell viability assay

[28] = cells; conditions: Homo sapiens, HLF1, 144 h, read-out: pIC50 (converted)
Description: Antiproliferative activity against human HLF1 cells incubated for 6 days by CellTiter-Glo luminescent cell viability assay

[29] = tested on: HSC-3; assay: Antiproliferative activity against HSC-3 in human […] cells at 3 uM incubated for 21 days; type: functional, cell-based; conditions: time 21.0 day
[30] = tested on: HLE; assay: Antiproliferative activity against human HLE cells incubated for 7 to 14 days by methylene blue dye based anchorage independent growth assay; type: functional, cell-based; conditions: time 7-14 day
[31] = tested on: Huh-7; assay: cells; conditions: Homo sapiens, Huh-7, 144 h, read-out: pIC50 (converted)
Description: Antiproliferative activity against human Huh-7 cells incubated for 6 days by CellTiter-Glo luminescent cell viability assay

[32] = molecular target: T1, von Hippel-Lindau disease tumor suppressor/Focal adhesion kinase 1; assay: Protac activity at VHL/PTK2 in human HuH-1 cells assessed as induction of PTK2 degradation incubated for 18 hrs by protein capillary electrophoresis method relative to control; type: cell-based
Target sequence in this assay (P40337 whole entry partner): as above
Target sequence in this assay (Q05397 2-1052 limits assumed): as the sequence (Q05397 2-1052 limits assumed) above

[33] = tested on: HLE; assay: cells; conditions: Homo sapiens, 144 h, read-out: pIC50 (converted)
Description: Antiproliferative activity against human HLE cells incubated for 6 days by CellTiter-Glo luminescent cell viability assay

[34] = tested on: CFPAC-1; assay: Antiproliferative activity against C32 in human CFPAC-1 cells at 3 uM incubated for 21 day; type: functional, cell-based
[35] = tested on: SK-HEP1; assay: Antiproliferative activity against human SK-HEP1 cells incubated for 7 to 14 days by methylene blue dye based anchorage independent growth assay; type: functional, cell-based; conditions: time 7-14 day
[36] = molecular target: Retinal rod rhodopsin-sensitive cGMP 3',5'-cyclic phosphodiesterase subunit delta (Homo sapiens) (UniProt O43924); assay: Induction of PDE6D degradation in human A549 cells at 100 nM to 10000 nM incubated for 18 hrs by immunoblot analysis based protein capillary electrophoresis; type: cell-based
[37] = tested on: SNU-387; assay: cells; conditions: Homo sapiens, SNU-387, 144 h, read-out: pIC50 (converted)
Description: Antiproliferative activity against human SNU-387 cells incubated for 6 days by CellTiter-Glo luminescent cell viability assay

[38] = tested on: C32; assay: Antiproliferative activity against C32 in human […] cells at 3 uM incubated for 21 days; type: functional, cell-based; conditions: time 21.0 day
[39] = tested on: Hep3B; assay: Antiproliferative activity against human Hep3B2.1-7 cells incubated for 7 to 14 days by methylene blue dye based anchorage independent growth assay; type: functional, cell-based; conditions: time 7-14 day
[40] = cells; conditions: Homo sapiens, Hep3B, 144 h, read-out: pIC50 (converted)
Description: Antiproliferative activity against human Hep3B2.1-7 cells incubated for 6 days by CellTiter-Glo luminescent cell viability assay

[41] = molecular target: T1, von Hippel-Lindau disease tumor suppressor/Focal adhesion kinase 1; assay: Protac activity at VHL/PTK2 in human HLF1 cells assessed as induction of PTK2 degradation incubated for 18 hrs by protein capillary electrophoresis method; type: cell-based
Target sequence in this assay (Q05397 whole entry): as the sequence (Q05397 whole entry) above
Target sequence in this assay (P40337 whole entry): as the sequence (P40337 whole entry partner) above

[42] = molecular target: T1, von Hippel-Lindau disease tumor suppressor/Focal adhesion kinase 1; assay: Protac activity at VHL/PTK2 in human SK-HEP1 cells assessed as induction of PTK2 degradation incubated for 18 hrs by protein capillary electrophoresis method relative to control; type: cell-based
Target sequence in this assay (P40337 whole entry partner): as above
Target sequence in this assay (Q05397 2-1052 limits assumed): as the sequence (Q05397 2-1052 limits assumed) above

[43] = molecular target: Protein cereblon/Focal adhesion kinase 1 (Homo sapiens, UniProt Q05397+Q96SW2); assay: Protac activity at CRBN/PTK2 in human SNU-423 cells assessed as induction of PTK2 degradation incubated for 18 hrs by protein capillary electrophoresis method relative to control; type: cell-based
Protein cereblon/Focal adhesion kinase 1, sequence (Q05397 2-1052 limits assumed): as above
Protein cereblon/Focal adhesion kinase 1, sequence (Q96SW2 whole entry partner): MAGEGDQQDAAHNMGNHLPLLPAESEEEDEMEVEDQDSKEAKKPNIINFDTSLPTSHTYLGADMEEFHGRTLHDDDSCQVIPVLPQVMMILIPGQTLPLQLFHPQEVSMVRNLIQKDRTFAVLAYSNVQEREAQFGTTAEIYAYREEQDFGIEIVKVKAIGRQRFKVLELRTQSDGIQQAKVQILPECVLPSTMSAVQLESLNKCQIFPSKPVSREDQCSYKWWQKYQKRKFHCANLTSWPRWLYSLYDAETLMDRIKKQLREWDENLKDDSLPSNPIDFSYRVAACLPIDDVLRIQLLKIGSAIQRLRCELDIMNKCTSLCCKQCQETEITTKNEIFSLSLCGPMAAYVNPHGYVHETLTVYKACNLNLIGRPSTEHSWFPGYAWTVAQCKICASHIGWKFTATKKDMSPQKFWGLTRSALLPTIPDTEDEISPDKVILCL

Retinal rod rhodopsin-sensitive cGMP 3',5'-cyclic phosphodiesterase subunit delta (Homo sapiens), sequence (O43924 whole entry): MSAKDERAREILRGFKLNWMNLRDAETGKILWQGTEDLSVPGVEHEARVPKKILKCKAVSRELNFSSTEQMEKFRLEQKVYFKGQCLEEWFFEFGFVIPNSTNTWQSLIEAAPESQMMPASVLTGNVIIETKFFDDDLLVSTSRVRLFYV
Focal adhesion kinase 1, sequence (Q05397 whole entry, the tested form may be a part): as the sequence (Q05397 whole entry) above

- Emax [1]: 86%
- Stabilty [2]: Stable
- IC50 [3]: 6.31 µM
- pDC50 [4]: 7.6
- pDC50 [6]: 7.1
- pDC50 [7]: 7.5
- IC50 [10]: > 25.1 µM
- IC50 [12]: 6.31 µM
- fraction unbound [15]: 0.113
- permeability [16]: Impermeable
- Emax [17]: 85%
- pDC50 [18]: 6.9
- IC50 [21]: 7.94 µM
- IC50 [23]: 0.019 µM
- IC50 [25]: 20 µM
- Activity [26]: Active
- IC50 [27]: 7.94 µM
- IC50 [28]: > 25.1 µM
- IC50 [31]: 3.98 µM
- Emax [32]: 79%
- IC50 [33]: 10 µM
- Activity [36]: Active
- IC50 [37]: 5.01 µM
- IC50 [40]: 6.31 µM
- pDC50 [41]: 7.4
- Emax [42]: 87%
Structure (SMILES): COc1cc(C(=O)NCCOCCOCCOCC(=O)N[C@H](C(=O)N2C[C@H](O)C[C@H]2C(=O)NCc2ccc(-c3scnc3C)cc2)C(C)(C)C)ccc1Nc1ncc(C(F)(F)F)c(Oc2cccc3c2C(=O)CC3)n1
- Activity [5]: inactive
- Activity [8]: inactive
- Activity [9]: inactive
- Activity [11]: inactive
- Activity [13]: inactive
- Activity [14]: inactive
- Activity [19]: inactive
- Activity [20]: inactive
- Activity [22]: inactive
- Activity [24]: inactive
- Activity [29]: inactive
- Activity [30]: inactive
- Activity [34]: inactive
- Activity [35]: inactive
- Activity [38]: inactive
- Activity [39]: inactive

- Stabilty [2]: Unstable
- IC50 [3]: 20 µM
- IC50 [10]: > 25.1 µM
- IC50 [12]: > 25.1 µM
- Emax [43]: 93%
- fraction unbound [15]: 0.04
- permeability [16]: Impermeable
- IC50 [21]: 1.58 µM
- IC50 [23]: 0.018 µM
- IC50 [25]: 25.1 µM
- Activity [26]: inactive
- IC50 [27]: > 25.1 µM
- IC50 [28]: > 25.1 µM
- IC50 [31]: > 25.1 µM
- IC50 [33]: > 25.1 µM
- Activity [36]: inactive
- IC50 [37]: > 25.1 µM
- IC50 [40]: 25.1 µM
Structure (SMILES): COc1cc(C(=O)NCCOCCOCCOCCC(=O)Nc2cccc3c2C(=O)N(C2CCC(=O)NC2=O)C3=O)ccc1Nc1ncc(C(F)(F)F)c(Oc2cccc3c2C(=O)CC3)n1 (stereo unspecified)
- Activity [5]: inactive
- Activity [8]: inactive
- Activity [9]: inactive
- Activity [11]: inactive
- Activity [13]: inactive
- Activity [14]: inactive
- Activity [19]: inactive
- Activity [20]: inactive
- Activity [22]: inactive
- Activity [24]: inactive
- Activity [29]: inactive
- Activity [30]: inactive
- Activity [34]: inactive
- Activity [35]: inactive
- Activity [38]: inactive
- Activity [39]: inactive
